Key:
[1] = biological target: KRAS G12D (Homo sapiens, UniProt P01116, G12D); assay: SOS-catalyzed nucleotide exchange assay, KRAS G12D (Procedure A); format: biochemical; details: guanine nucleotide exchange (GNE)
Summary of the method: (§1)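 Preformed TR-FRET complex of biotinylated KRAS (G12C carries C51S/C80L/C118S; others native sequence), Bodipy-GDP and Tb-streptavidin preincubated with compound 60 min at room temperature. Exchange started with human SOS plus 3 mM GTP for 60 min (G13D 30 min). Final RAS/SOS: G12C 3/40 nM; WT, G12D 1/40 nM; G13D 1.25/0 nM. 520/495 nm ratio normalised, fitted to four-parameter logistic.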

[2] = biological target: KRAS WT (Homo sapiens, UniProt P01116); assay: SOS-catalyzed nucleotide exchange assay, KRAS WT (Procedure A); format: biochemical; details: GNE
Chain of KRAS WT (P01116 with tags, fused parts or gaps isoform P01116-2): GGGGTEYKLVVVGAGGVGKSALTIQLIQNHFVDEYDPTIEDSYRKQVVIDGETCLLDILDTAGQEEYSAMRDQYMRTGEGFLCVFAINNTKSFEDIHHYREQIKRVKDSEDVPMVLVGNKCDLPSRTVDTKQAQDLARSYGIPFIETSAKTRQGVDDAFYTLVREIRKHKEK
Summary of the method: as §1

[3] = biological target: KRAS G12V (Homo sapiens, UniProt P01116, G12V); assay: SOS-catalyzed nucleotide exchange assay, KRAS G12V (Procedure A); format: biochemical; details: GNE
Chain of KRAS G12V (P01116 with tags, fused parts or gaps isoform P01116-2 G12V): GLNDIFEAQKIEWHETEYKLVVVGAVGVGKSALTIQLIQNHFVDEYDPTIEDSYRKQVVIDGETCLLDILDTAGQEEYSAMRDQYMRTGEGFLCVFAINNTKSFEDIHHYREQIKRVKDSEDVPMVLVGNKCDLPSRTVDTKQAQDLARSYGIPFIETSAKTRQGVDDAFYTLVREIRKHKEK
Summary of the method: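 Biotinylated KRAS G12V was loaded with Bodipy-GDP alongside Terbium-streptavidin to form a TR-FRET complex, which was preincubated with compounds for 60 minutes in 384-well plates. Human SOS protein and unlabeled GTP were then added for 90 minutes, giving final concentrations of 1.25 nM KRAS-G12V, 160 nM SOS and 3 mM GTP. The 520/495 nm emission ratio was read on an Envision.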

[4] = biological target: T1, AsPC-1 cells (Homo sapiens, UniProt P01116, G12D); assay: Cellular phospho-ERK assay, AsPC-1 cells (KRAS G12D); format: cell-based; details: 2 hours, read-out: AsPC1 pERK IC50
T1 construct: p-ERK/total ERK AlphaSureFire read-out
T1 sequence (P01116 1-188 isoform P01116-2 G12D): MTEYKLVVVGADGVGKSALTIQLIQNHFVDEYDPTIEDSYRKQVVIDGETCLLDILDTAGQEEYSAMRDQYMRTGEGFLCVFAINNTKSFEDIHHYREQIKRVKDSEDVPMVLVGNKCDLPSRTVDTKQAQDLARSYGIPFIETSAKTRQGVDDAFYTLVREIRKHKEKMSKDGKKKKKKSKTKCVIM
Summary of the method: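 PANC08.13 or AsPC-1 cells (homozygous KRAS G12D) were seeded overnight, then treated for 2 h at 37 °C with a 10-point 1:3 titration from 30 μM. Lysates were assayed by AlphaLISA SureFire for p-ERK and total ERK. IC50 came from a 4-parameter fit of the p-ERK/total ERK ratio.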

Chain of KRAS G12D (P01116 with tags, fused parts or gaps isoform P01116-2 G12D): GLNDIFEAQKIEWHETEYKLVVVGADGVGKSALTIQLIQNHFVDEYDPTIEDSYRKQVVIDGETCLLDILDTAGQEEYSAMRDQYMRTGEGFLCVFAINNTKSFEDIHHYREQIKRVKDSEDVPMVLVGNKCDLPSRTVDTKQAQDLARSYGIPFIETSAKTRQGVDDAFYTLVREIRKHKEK

| Compound | IC50 [1] [nM] | IC50 [2] [nM] | IC50 [3] [nM] | IC50 [4] [nM] |
| --- | --- | --- | --- | --- |
| Cc1cc2[nH]ncc2c(-c2nccc3c2sc2nc(OCC45COC(CF)(C4)C5)nc(N4C[C@H]5CC[C@@H](C4)N5)c23)c1C(F)(F)F [Ex-28, 4-((1R,5S)-3,8-diazabicyclo[3.2.1]octan-3-yl)-2-((1-(fluoromethyl)-2-oxabicyclo[2.1.1]hexan-4-yl)methoxy)-8-(6-methy1-5-(trifluoromethyl)-1H-indazol-4-yl)pyrido[4′,3′:4,5]thieno[2,3-d]pyrimidine] | 3340 | > 11100 | > 11100 | > 30000 |
| C#Cc1c(F)ccc2cc3[nH]ncc3c(-c3nccc4c3sc3nc(OCC5(CN(C)C)COC5)nc(N5C[C@H]6CC[C@@H](C5)N6)c34)c12 [Ex-95, 1-(3-(((4-((1R,5S)-3,8-diazabicyclo[3.2.1]octan-3-yl)-8-(5-ethynyl-6-fluoro-1H-benzo[f]indazol-4-yl)pyrido[4′,3′:4,5]thie-no[2,3-d]pyrimidin-2-yl)oxy)methyl)oxetan-3-yl)-N,N-dimethylmethanamine] | 5.29 | 2800 | 6760 | 180 |
| C#Cc1c(F)ccc2cc3[nH]ncc3c(-c3nccc4c3sc3nc(OC[C@@]56CCCN5C[C@H](F)C6)nc(N5C[C@H]6CC[C@@H](C5)N6CCCC#N)c34)c12 [Ex-88, 4-((1R,5S)-3-(8-(5-ethynyl-6-fluoro-1H-benzo[f]indazol-4-yl)-2-(((2R,7aS)-2-fluorotetrahydro-1H-pyrrolizin-7a(5H)-yl)methoxy)pyrido[4′,3′:4,5]thieno[2,3-d]pyrimidin-4-yl)-3,8-diazabicyclo[3.2.1]octan-8-yl)butanenitrile] | 100 | 743 | 1780 | 368 |
| C#Cc1c(F)ccc2cc3[nH]ncc3c(-c3nccc4c3sc3nc(OC[C@@]56CCC7(CC7)N5C[C@H](F)C6)nc(N5C[C@H]6CC[C@@H](C5)N6)c34)c12 [Ex-97, 4-((1R,5S)-3,8-diazabicyclo[3.2.1]octan-3-yl)-8-(5-ethynyl-6-fluoro-1H-benzo[f]indazol-4-yl)-2-(((6′R,7a′S)-6′-fluorotetrahydrospiro[cy-clopropane-1,3′-pyrrolizin]-7a′(5'H)-yl)methoxy)pyrido[4′, 3′:4,5]thieno[2,3-d]pyrimidine] | 3 | 1290 | 3130 | 210 |
| F[C@H]1CN2CCC[C@@]2(COc2nc(N3C[C@H]4CC[C@@H](C3)N4)c3c(n2)C2(CC2)c2c-3ccnc2-c2c(C3CC3)c(Cl)cc3[nH]ncc23)C1 (single isomer, unassigned) [Ex-115] | 9 | 2050 | 2120 | 523 |
| C#Cc1cc(F)cc2cc3[nH]ncc3c(-c3nccc4c3sc3nc(OC[C@@]56CCCN5C[C@H](F)C6)nc(N5C[C@H]6CC[C@@H](C5)N6)c34)c12 [Ex-86, 4-((1R,5S)-3,8-diazabicyclo[3.2.1]octan-3-yl)-8-(5-ethynyl-7-fluoro-1H-benzo[f]indazol-4-yl)-2-(((2R,7aS)-2-fluorotetrahydro-1H-pyrrolizin-7a(5H)-yl)methoxy)pyrido[4′,3′:4,5]thieno[2,3-d]pyrimidine] | 3.31 | 542 | 1240 | 54.6 |
| C#Cc1c(F)ccc2cc3[nH]ncc3c(-c3nccc4c3sc3nc(OC[C@]5(CN(C)C)CC5(F)F)nc(N5C[C@H]6CC[C@@H](C5)N6)c34)c12 [Ex-96, 1-((1R)-1-(((4-((1R,5S)-3,8-diazabicyclo[3.2.1]octan-3-yl)-8-(5-ethynyl-6-fluoro-1H-benzo[f]indazol-4-yl)pyrido[4′,3′:4,5]thie-no[2,3-d]pyrimidin-2-yl)oxy)methyl)-2,2-difluorocyclopropyl)-N,N-dimethylmethanamine] | 1.62 | 259 | 248 | 22.8 |
| C#Cc1c(F)ccc2cc3[nH]ncc3c(-c3nccc4c3sc3nc(OC[C@]5(CN6CCC7(CC6)CC(Cc6cn(C)nn6)C7)CC5(F)F)nc(N5C[C@H]6CC[C@@H](C5)N6)c34)c12 [Ex-106, 4-((1R,5S)-3,8-diazabicyclo[3.2.1]octan-3-yl)-2-(((R)-2,2-difluoro-1-((2-((1-methyl-1H-1,2,3-triazol-4-yl)methyl)-7-azaspiro[3.5]nonan-7-yl)methyl)cyclopropyl)methoxy)-8-(5-ethynyl-6-fluoro-1H-benzo[f]indazol-4-yl)pyrido[4′,3′:4,5]thie-no[2,3-d]pyrimidine] | 2.03 | 877 | 1700 | 74 |
| C#Cc1c(F)ccc2cc3[nH]ncc3c(-c3nccc4c3sc3nc(OCC5(C(=O)NC)CC5)nc(N5C[C@H]6CC[C@@H](C5)N6)c34)c12 [Ex-91, 1-(((4-((1R,5S)-3,8-diazabicyclo[3.2.1]octan-3-yl)-8-(5-ethynyl-6-fluoro-1H-benzo[f]indazol-4-yl)pyrido[4′,3′:4,5]thie-no[2,3-d]pyrimidin-2-yl)oxy)methyl)-N-methylcyclopropane-1-carboxamide] | 50.6 | > 11100 | > 11100 | 5030 |
| COC1(COc2nc(N3C[C@H]4CC[C@@H](C3)N4)c3c(n2)sc2c(-c4c(C(F)(F)F)c(C)cc5[nH]ncc45)nccc23)CC1 [Ex-26, 4-((1R,5S)-3,8-diazabicyclo[3.2.1]octan-3-yl)-2-((1-methoxycyclopropyl)methoxy)-8-(6-methyl-5-(trifluoromethyl)-1H-indazol-4-yl)pyrido[4′,3′:4,5]thieno[2,3-d]pyrimidine] | 3200 | > 11100 | > 11100 | > 30000 |
| C#Cc1c(F)ccc2cc3[nH]ncc3c(-c3nccc4c3sc3nc(OC[C@]5(CN6CCC6)CC5(F)F)nc(N5C[C@H]6CC[C@@H](C5)N6)c34)c12 [Ex-107, 2-(((R)-1-(azetidin-1-ylmethyl)-2,2-difluorocyclopropyl)meth-oxy)-4-((1R,5S)-3,8-diazabicyclo[3.2.1]octan-3-yl)-8-(5-ethynyl-6-fluoro-1H-benzo[f]indazol-4-yl)pyrido[4′,3′:4,5]thie-no[2,3-d]pyrimidine] | 3.23 | 800 | 1030 | 51.8 |
| C#Cc1c(F)ccc2cc3[nH]ncc3c(-c3nccc4c3sc3nc(OCC5(CN6CC[C@@H](F)C6)CC5)nc(N5C[C@H]6CC[C@@H](C5)N6)c34)c12 [Ex-94, 4-((1R,5S)-3,8-diazabicyclo[3.2.1]octan-3-yl)-8-(5-ethynyl-6-fluoro-1H-benzo[f]indazol-4-yl)-2-((1-(((R)-3-fluoropyrrolidin-1-yl)methyl)cyclopropyl)methoxy)pyrido[4′,3′: 4,5]thieno[2,3-d]pyrimidine] | 2.99 | 847 | 1950 | 85.9 |
| C#Cc1csc2cc3[nH]ncc3c(-c3nccc4c3sc3nc(OCC5(C#N)CCOCC5)nc(N5C[C@H]6CC[C@@H](C5)N6)c34)c12 [Ex-84, 4-(((4-((1R,5S)-3,8-diazabicyclo[3.2.1]oc-tan-3-yl)-8-(5-ethynyl-1H-thieno[3,2-f]indazol-4-yl)pyrido[4′,3′:4,5]thi-eno[2,3-d]pyrimi-din-2-yl)oxy)methyl)tetrahydro-2H-pyran-4-carbonitrile] | 111 | > 11100 | > 11100 | 2940 |
| C#Cc1csc2cc3[nH]ncc3c(-c3nccc4c3sc3nc(OC[C@@]56CCCN5C/C(=C\F)C6)nc(N5C[C@H]6CC[C@@H](C5)N6)c34)c12 [Ex-85, 4-((1R,5S)-3,8-diazabicyclo[3.2.1]octan-3-yl)-8-(5-ethynyl-1H-thieno[3,2-f]indazol-4-yl)-2-(((S,Z)-2-(fluoromethylene)tetrahydro-1H-pyrrolizin-7a(5H)-yl)methoxy)pyrido[4′,3′:4,5]thieno[2,3-d]pyrimidine] | 2.06 | 32.1 | 28.2 | 8.52 |
| C#Cc1csc2cc3[nH]ncc3c(-c3nccc4c3sc3nc(OC[C@]5(CN6CC7(C6)CC(F)(F)C7)CC5(F)F)nc(N5C[C@H]6CC[C@@H](C5)N6)c34)c12 [Ex-83, 4-((1R,5S)-3,8-diazabicyclo[3.2.1]octan-3-yl)-2-(((R)-1-((6,6-difluoro-2-azaspiro[3.3]heptan-2-yl)methyl)-2,2-difluorocyclopropyl)methoxy)-8-(5-ethynyl-1H-thieno[3,2-f]indazol-4-yl)pyrido[4′,3′:4,5]thieno[2,3-d]pyrimidine] | 1.43 | 430 | 704 | 42.5 |
| F[C@H]1CN2CCC[C@@]2(COc2nc(N3C[C@H]4CC[C@@H](C3)N4)c3c(n2)sc2c(-c4c5cn[nH]c5cc5cccc(Cl)c45)nccc23)C1 [Ex-58, 4-((1R,5S)-3,8-diazabicyclo[3.2.1]octan-3-yl)-8-(5-chloro-1H-benzo[/]indazol-4-yl)-2-(((2R,7aS)-2-fluorotetrahydro-1H-pyrrolizin-7a(5H)-yl)methoxy)pyrido[4′,3′:4,5]thieno[2,3-d]pyrimidine] | 9.3 | 1830 | 2560 | 447 |

Reference: patent publication US20260347372A1, “SMALL MOLECULE INHIBITORS OF KRAS G12D MUTANT” (MERCK SHARP & DOHME LLC, priority 2023, published 2026)
